In ChEMBL document CHEMBL4651402, “Screening of ~5500 FDA-approved drugs and clinical candidates for anti-SARS-CoV-2 activity” (2021):
pIC50: −log10 of the molar value. Peptide text beside a SMILES is read from it.

Test system: SARS-CoV-2
Test: microbe, parasite or virus in culture
Conditions: Severe acute respiratory syndrome coronavirus 2, Vero C1008, 48 h; for IC50: read-out: pIC50 (converted)

Row | SMILES | pIC50 | IC50
1 | C[C@]12CCC(=O)C(O)=C1CC[C@@H]1[C@@H]2CC[C@]2(C)C(=O)CC[C@@H]12 [FORMESTANE] | < 4.70 | > 20 µM
2 | O=C(c1ccc(/C=C/c2n[nH]c3ccccc23)cc1)N1CCNCC1 [KW-2449] | < 4.70 | > 20 µM
3 | COc1ccc2c(c1)CC[C@H](CN(C)CC(=O)O)[C@@H]2c1ccccc1 [ORG-25935] | < 4.70 | > 20 µM
4 | CN(C)CCN(Cc1ccccc1)c1ccccn1 [TRIPELENNAMINE] | < 4.70 | > 20 µM
5 | CNc1ncnc2c1ncn2[C@@H]1O[C@H](CO)[C@@H](O)[C@H]1O | < 4.70 | > 20 µM
6 | CCN(CC)CCOC(=O)C(c1ccccc1)N1CCCCC1 (centres undefined) [BIETAMIVERINE] | < 4.70 | > 20 µM
7 | CC(C)OC(=O)[C@H](C)NP(=O)(OC[C@H]1O[C@@H](n2ccc(=O)[nH]c2=O)[C@](C)(F)[C@@H]1O)Oc1ccccc1 (some centres undefined) | < 4.70 | > 20 µM
8 | NC(N)=Nc1nc(CSCC/C(N)=N/S(N)(=O)=O)cs1 [FAMOTIDINE] | < 4.70 | > 20 µM
9 | O=C(NC[C@H](O)CO)c1ccncc1Nc1ccc(I)cc1F [PIMASERTIB] | < 4.70 | > 20 µM
10 | O=C(OC1Cc2c(O)cc(O)cc2O[C@@H]1c1ccc(O)c(O)c1)c1cc(O)c(O)c(O)c1 (some centres undefined) | < 4.70 | > 20 µM
11 | CC(C)C(NC(=O)C(CC(=O)O)NC(=O)C(CCCCN)NC(=O)C(N)CCCNC(=N)N)C(=O)NC(Cc1ccc(O)cc1)C(=O)O (centres undefined) (H-RKDVY-OH; configuration not given here) | < 4.70 | > 20 µM
12 | COc1cc(Nc2c(C#N)cnc3cc(OCCCN4CCN(C)CC4)c(OC)cc23)c(Cl)cc1Cl [BOSUTINIB] | < 4.70 | > 20 µM
13 | CC(=O)OC(CC(=O)O)C[N+](C)(C)C (centres undefined) | < 4.70 | > 20 µM
14 | NCC(=O)c1ccccc1 | < 4.70 | > 20 µM
15 | CN(C)CCC(c1ccccc1)C1CCCCC1 (centres undefined) [GAMFEXINE] | < 4.70 | > 20 µM
16 | CC(Cc1cccc(C(F)(F)F)c1)NCCOC(=O)c1ccccc1 (centres undefined) [BENFLUOREX] | < 4.70 | > 20 µM
17 | c1cncc(C2CCCCN2)c1 (stereo not drawn) [DL-ANABASINE] | < 4.70 | > 20 µM
18 | Cc1ccc(C2(O)CCN(CCCC(=O)c3ccc(F)cc3)CC2)cc1 [MOPERONE] | < 4.70 | > 20 µM
19 | O=C(/C=C/c1ccccc1)c1ccc(O)cc1O [2',4'-DIHYDROXYCHALCONE] | < 4.70 | > 20 µM

Row | SMILES | pIC50 | IC50
20 | CC(C)(O)CC[C@@H](O)[C@](C)(O)[C@H]1CC[C@@]2(O)C3=CC(=O)[C@@H]4C[C@@H](O)[C@@H](O)C[C@]4(C)[C@H]3CC[C@]12C [20-HYDROXYECDYSONE] | < 4.70 | > 20 µM
21 | COc1cc(CC(=O)NCCCc2ccc(C)c(C)c2)ccc1OCCN [DAVASAICIN] | < 4.70 | > 20 µM
22 | CC/C(=C(/CC)c1ccc(O)cc1)c1ccc(O)cc1 [DIETHYLSTILBESTROL] | < 4.70 | > 20 µM
23 | O=C1NC(O)CCN1[C@@H]1O[C@H](CO)[C@@H](O)[C@H]1O (some centres undefined) [TETRAHYDROURIDINE] | < 4.70 | > 20 µM
24 | C=CC1CN2CCC1CC2C(O)c1ccnc2ccccc12 (centres undefined) | < 4.70 | > 20 µM
25 | Oc1c(Cc2ccccc2)ccc2ccccc12 | < 4.70 | > 20 µM
26 | CC(C)OC(=O)[C@@H](C)NP(=O)(OC[C@H]1O[C@@H](n2ccc(=O)[nH]c2=O)[C@](C)(O)[C@@H]1O)Oc1ccccc1 (some centres undefined) | < 4.70 | > 20 µM
27 | Cc1ccc(/C=C/C(=O)NCCCCN2CCN(C(c3ccccc3)c3ccccc3)CC2)cn1 [TAGORIZINE] | < 4.70 | > 20 µM
28 | O=C(O)COC(=O)Cc1ccccc1Nc1c(Cl)cccc1Cl [ACECLOFENAC] | < 4.70 | > 20 µM
29 | COc1cc(C(=O)OC(COCCC(C)C)CN2CCOCC2)cc(OC)c1OC (centres undefined) [AMOPROXAN] | < 4.70 | > 20 µM
30 | O=C(O)C[C@H](O)C[C@H](O)/C=C/c1c(C2CC2)nc2ccccc2c1-c1ccc(F)cc1 [PITAVASTATIN] | < 4.30 | > 50.1 µM
31 | CCOC(=O)[C@@](C)(N)Cc1ccc(O)c(O)c1 [METHYLDOPATE] | < 4.70 | > 20 µM
32 | CN(C)CCN(Cc1cccs1)c1ccccn1 | < 4.70 | > 20 µM
33 | NS(=O)(=O)c1cc(C2(O)NC(=O)c3ccccc32)ccc1Cl (centres undefined) [CHLORTHALIDONE] | < 4.70 | > 20 µM
34 | O=C(O)CN(CCN(CC(=O)O)CC(=O)O)CCN(CC(=O)O)CC(=O)O [PENTETIC ACID] | < 4.70 | > 20 µM
35 | CC(C)N(CCC(CCN1CCCCC1)(C(N)=O)c1ccccc1Cl)C(C)C (centres undefined) [DISOBUTAMIDE] | < 4.70 | > 20 µM
36 | CSc1nc2cc(Cl)c(Oc3cccc(Cl)c3Cl)cc2[nH]1 [TRICLABENDAZOLE] | < 4.70 | > 20 µM
37 | C=CC1=C(C)/C(=C/c2[nH]c(Cc3[nH]c(/C=C4\NC(=O)C(C)=C4C=C)c(C)c3CCC(=O)O)c(CCC(=O)O)c2C)NC1=O [BILIRUBIN] | < 4.70 | > 20 µM
